Source: patent publication US8247211B2, “Glycopeptide antibiotics” (American Cyanamid Company, priority 2001, dated 2012)
≈ marks a conversion by molar mass, not a printed value.

How the values were obtained:
Test in all cases: In vitro antibacterial evaluation: minimum inhibitory concentration (MIC), broth dilution method
Assay type in all cases: cell-based
Settings in all cases: 18 hours at 35° C.
Staphylococcus sp. = system: Staphylococcus sp.
Method in brief: (§1)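 Inoculum: 5×10^5 CFU/mL. Range: 64-0.06 μg/mL. Medium: Muller-Hinton II […]; NCCLS M7-A2 broth dilution. Endpoint: lowest concentration inhibiting growth. Strains include methicillin-, penicillin- and/or vancomycin-resistant clinical isolates.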

Streptococcus sp. = system: Streptococcus sp.
Method in brief: as §1

Enterococcus sp. = system: Enterococcus sp.
Method in brief: as §1

Escherichia coli = system: Escherichia coli
Method in brief: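 An MIC is reported for each organism as the least concentration giving inhibition, using broth dilution over 64-0.06 μg/mL with a 5×10^5 CFU/mL inoculum.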

[1] = Streptococcus agalactiae (GC 4564)
[2] = Streptococcus pneumoniae (ATCC 6301)
[3] = Streptococcus pneumoniae (GC 1894)
[4] = Streptococcus pneumoniae (GC 4565)
[5] = Streptococcus pyogenes (GC 4563)
[6] = broth dilution, inoculum 5×10^5 CFU/mL
[7] = Enterococcus faecalis (GC 2242)
[8] = Enterococcus faecalis (GC 2691)
[9] = Enterococcus faecalis (GC 3059)

COc1ccc(COCC2OC(OC3C(CO)OC(Oc4ccc(CC5NC(=O)C(C(C)c6ccccc6)NC(=O)CNC(=O)C(CO)NC(=O)C(C(O)C6CNC(=N)N6C6OC(CO)C(O)C(O)C6O)NC(=O)C(C(O)C6CNC(=N)N6)NC5=O)cc4)C(O)C3O)C(O)C(O)C2O)cc1F (centres unmarked) [Example 237]
MIC Coagulase Negative Staphylococcus (GC 4547) (Staphylococcus sp.): 2 mg/L (≈ 1.4 µM) | MIC Coagulase Negative Staphylococcus (GC 4548) (Staphylococcus sp.): 1 mg/L (≈ 0.698 µM) | MIC Coagulase Negative Staphylococcus (GC 4549) (Staphylococcus sp.): 1 mg/L (≈ 0.698 µM) | MIC Coagulase Negative Staphylococcus (GC 4551) (Staphylococcus sp.): 4 mg/L (≈ 2.79 µM) | MIC Coagulase Negative Staphylococcus (GC 6257) (Staphylococcus sp.): 1 mg/L (≈ 0.698 µM) | MIC Staphylococcus aureus (ATCC 29213) (Staphylococcus sp.): 4 mg/L (≈ 2.79 µM) | MIC Staphylococcus aureus (GC 1131) (Staphylococcus sp.): 4 mg/L (≈ 2.79 µM) | MIC Staphylococcus aureus (GC 3051) (Staphylococcus sp.): 2 mg/L (≈ 1.4 µM) | MIC Staphylococcus aureus (GC 3053) (Staphylococcus sp.): 4 mg/L (≈ 2.79 µM) | MIC Staphylococcus aureus (GC 4541) (Staphylococcus sp.): 2 mg/L (≈ 1.4 µM) | MIC Staphylococcus aureus (GC 4542) (Staphylococcus sp.): 8 mg/L (≈ 5.58 µM) | MIC Staphylococcus aureus (GC 4544) (Staphylococcus sp.): 4 mg/L (≈ 2.79 µM) | MIC Staphylococcus aureus (GC 4545) (Staphylococcus sp.): 2 mg/L (≈ 1.4 µM) | MIC Staphylococcus aureus-SMITH (GC 4543) (Staphylococcus sp.): 2 mg/L (≈ 1.4 µM) | MIC Staphylococcus haemolyticus (GC 4546) (Staphylococcus sp.): 1 mg/L (≈ 0.698 µM) | MIC Streptococcus agalactiae (GC 4564) (Streptococcus sp.; [1]): 2 mg/L (≈ 1.4 µM) | MIC Streptococcus pneumoniae (ATCC 6301) (Streptococcus sp.; [2]): 0.5 mg/L (≈ 0.349 µM) | MIC Streptococcus pneumoniae (GC 1894) (Streptococcus sp.; [3]): 0.25 mg/L (≈ 0.174 µM) | MIC Streptococcus pneumoniae (GC 4565) (Streptococcus sp.; [4]): 0.5 mg/L (≈ 0.349 µM) | MIC Streptococcus pyogenes (GC 4563) (Streptococcus sp.; [5]): 1 mg/L (≈ 0.698 µM) | MIC Streptococcus agalactiae (GC 4564) (Streptococcus sp.; [6]): 2 mg/L (≈ 1.4 µM) | MIC Streptococcus pneumoniae (ATCC 6301) (Streptococcus sp.; [6]): 0.5 mg/L (≈ 0.349 µM) | MIC Streptococcus pneumoniae (GC 1894) (Streptococcus sp.; [6]): 0.25 mg/L (≈ 0.174 µM) | MIC Streptococcus pneumoniae (GC 4565) (Streptococcus sp.; [6]): 0.5 mg/L (≈ 0.349 µM) | MIC Streptococcus pyogenes (GC 4563) (Streptococcus sp.; [6]): 1 mg/L (≈ 0.698 µM) | MIC Enterococcus avium (GC 4558) (Enterococcus sp.): 16 mg/L (≈ 11.2 µM) | MIC Enterococcus faecalis (ATCC 29212) (Enterococcus sp.): 16 mg/L (≈ 11.2 µM) | MIC Enterococcus faecalis (GC 2242) (Enterococcus sp.; [7]): 16 mg/L (≈ 11.2 µM) | MIC Enterococcus faecalis (GC 2691) (Enterococcus sp.; [8]): 16 mg/L (≈ 11.2 µM) | MIC Enterococcus faecalis (GC 3059) (Enterococcus sp.; [9]): 32 mg/L (≈ 22.3 µM) | MIC Enterococcus faecalis (GC 4552) (Enterococcus sp.): 16 mg/L (≈ 11.2 µM) | MIC Enterococcus faecalis (GC 4553) (Enterococcus sp.): 16 mg/L (≈ 11.2 µM) | MIC Enterococcus faecalis (GC 4554) (Enterococcus sp.): 32 mg/L (≈ 22.3 µM) | MIC Enterococcus faecalis (GC 6189) (Enterococcus sp.): 16 mg/L (≈ 11.2 µM) | MIC Enterococcus faecium (GC 2243) (Enterococcus sp.): 16 mg/L (≈ 11.2 µM) | MIC Enterococcus faecium (GC 4556) (Enterococcus sp.): 16 mg/L (≈ 11.2 µM) | MIC Enterococcus faecium (GC 4557) (Enterococcus sp.): 4 mg/L (≈ 2.79 µM) | MIC Enterococcus faecalis (GC 2242) (Enterococcus sp.; [6]): 16 mg/L (≈ 11.2 µM) | MIC Enterococcus faecalis (GC 2691) (Enterococcus sp.; [6]): 16 mg/L (≈ 11.2 µM) | MIC Enterococcus faecalis (GC 3059) (Enterococcus sp.; [6]): 32 mg/L (≈ 22.3 µM) | MIC Escherichia coli (ATCC 25922) (Escherichia coli): 64 mg/L (≈ 44.6 µM) | MIC Escherichia coli (GC 4559) (Escherichia coli): 64 mg/L (≈ 44.6 µM) | MIC Escherichia coli (GC 4560) (Escherichia coli): 1 mg/L (≈ 0.698 µM)

CCOc1cc(COCC2OC(OC3C(CO)OC(Oc4ccc(CC5NC(=O)C(C(C)c6ccccc6)NC(=O)CNC(=O)C(CO)NC(=O)C(C(O)C6CNC(=N)N6C6OC(CO)C(O)C(O)C6O)NC(=O)C(C(O)C6CNC(=N)N6)NC5=O)cc4)C(O)C3O)C(O)C(O)C2O)ccc1OC (centres unmarked) [Example 238]
MIC Coagulase Negative Staphylococcus (GC 4547) (Staphylococcus sp.): 2 mg/L (≈ 1.37 µM) | MIC Coagulase Negative Staphylococcus (GC 4548) (Staphylococcus sp.): 2 mg/L (≈ 1.37 µM) | MIC Coagulase Negative Staphylococcus (GC 4549) (Staphylococcus sp.): 2 mg/L (≈ 1.37 µM) | MIC Coagulase Negative Staphylococcus (GC 4551) (Staphylococcus sp.): 4 mg/L (≈ 2.74 µM) | MIC Coagulase Negative Staphylococcus (GC 6257) (Staphylococcus sp.): 1 mg/L (≈ 0.685 µM) | MIC Staphylococcus aureus (ATCC 29213) (Staphylococcus sp.): 4 mg/L (≈ 2.74 µM) | MIC Staphylococcus aureus (GC 1131) (Staphylococcus sp.): 4 mg/L (≈ 2.74 µM) | MIC Staphylococcus aureus (GC 3051) (Staphylococcus sp.): 4 mg/L (≈ 2.74 µM) | MIC Staphylococcus aureus (GC 3053) (Staphylococcus sp.): 8 mg/L (≈ 5.48 µM) | MIC Staphylococcus aureus (GC 4541) (Staphylococcus sp.): 4 mg/L (≈ 2.74 µM) | MIC Staphylococcus aureus (GC 4542) (Staphylococcus sp.): 4 mg/L (≈ 2.74 µM) | MIC Staphylococcus aureus (GC 4544) (Staphylococcus sp.): 8 mg/L (≈ 5.48 µM) | MIC Staphylococcus aureus (GC 4545) (Staphylococcus sp.): 2 mg/L (≈ 1.37 µM) | MIC Staphylococcus aureus-SMITH (GC 4543) (Staphylococcus sp.): 4 mg/L (≈ 2.74 µM) | MIC Staphylococcus haemolyticus (GC 4546) (Staphylococcus sp.): 2 mg/L (≈ 1.37 µM) | MIC Streptococcus agalactiae (GC 4564) (Streptococcus sp.; [1]): 2 mg/L (≈ 1.37 µM) | MIC Streptococcus pneumoniae (ATCC 6301) (Streptococcus sp.; [2]): 1 mg/L (≈ 0.685 µM) | MIC Streptococcus pneumoniae (GC 1894) (Streptococcus sp.; [3]): 0.5 mg/L (≈ 0.343 µM) | MIC Streptococcus pneumoniae (GC 4565) (Streptococcus sp.; [4]): 1 mg/L (≈ 0.685 µM) | MIC Streptococcus pyogenes (GC 4563) (Streptococcus sp.; [5]): 1 mg/L (≈ 0.685 µM) | MIC Streptococcus agalactiae (GC 4564) (Streptococcus sp.; [6]): 2 mg/L (≈ 1.37 µM) | MIC Streptococcus pneumoniae (ATCC 6301) (Streptococcus sp.; [6]): 1 mg/L (≈ 0.685 µM) | MIC Streptococcus pneumoniae (GC 1894) (Streptococcus sp.; [6]): 0.5 mg/L (≈ 0.343 µM) | MIC Streptococcus pneumoniae (GC 4565) (Streptococcus sp.; [6]): 1 mg/L (≈ 0.685 µM) | MIC Streptococcus pyogenes (GC 4563) (Streptococcus sp.; [6]): 1 mg/L (≈ 0.685 µM) | MIC Enterococcus avium (GC 4558) (Enterococcus sp.): 16 mg/L (≈ 11 µM) | MIC Enterococcus faecalis (ATCC 29212) (Enterococcus sp.): 16 mg/L (≈ 11 µM) | MIC Enterococcus faecalis (GC 2242) (Enterococcus sp.; [7]): 16 mg/L (≈ 11 µM) | MIC Enterococcus faecalis (GC 2691) (Enterococcus sp.; [8]): 16 mg/L (≈ 11 µM) | MIC Enterococcus faecalis (GC 3059) (Enterococcus sp.; [9]): 32 mg/L (≈ 21.9 µM) | MIC Enterococcus faecalis (GC 4552) (Enterococcus sp.): 32 mg/L (≈ 21.9 µM) | MIC Enterococcus faecalis (GC 4553) (Enterococcus sp.): 32 mg/L (≈ 21.9 µM) | MIC Enterococcus faecalis (GC 4554) (Enterococcus sp.): 32 mg/L (≈ 21.9 µM) | MIC Enterococcus faecalis (GC 6189) (Enterococcus sp.): 16 mg/L (≈ 11 µM) | MIC Enterococcus faecium (GC 2243) (Enterococcus sp.): 16 mg/L (≈ 11 µM) | MIC Enterococcus faecium (GC 4556) (Enterococcus sp.): 32 mg/L (≈ 21.9 µM) | MIC Enterococcus faecium (GC 4557) (Enterococcus sp.): 4 mg/L (≈ 2.74 µM) | MIC Enterococcus faecalis (GC 2242) (Enterococcus sp.; [6]): 16 mg/L (≈ 11 µM) | MIC Enterococcus faecalis (GC 2691) (Enterococcus sp.; [6]): 16 mg/L (≈ 11 µM) | MIC Enterococcus faecalis (GC 3059) (Enterococcus sp.; [6]): 32 mg/L (≈ 21.9 µM) | MIC Escherichia coli (ATCC 25922) (Escherichia coli): >64 mg/L | MIC Escherichia coli (GC 4559) (Escherichia coli): >64 mg/L | MIC Escherichia coli (GC 4560) (Escherichia coli): 2 mg/L (≈ 1.37 µM)
